According to US10351522B2, “Sulfonamide derivative and pharmaceutically acceptable acid addition salt thereof” (UNIVERSITY OF TSUKUBA, priority 2015, dated 2019):
Read-outs that look alike come from different tables or passages of the source.

Assays:
human OX1R = biological target: T1, human OX1R (Homo sapiens, UniProt O43613); assay: Agonist activity against OX1R: intracellular calcium (Fura-2AM, FDSS7000) in CHOOX1R cells; format: cell-based; conditions: for Emax at 0.1 µM / Emax at 1 µM / Emax at 10 µM: read-out: Response (%) OX1R
T1 construct: expressed in transfected cells; host or cells: CHO (Chinese hamster ovary) cells, line CHOOX1R, co-expressing NFAT-luciferase
T1 sequence (O43613 1-425): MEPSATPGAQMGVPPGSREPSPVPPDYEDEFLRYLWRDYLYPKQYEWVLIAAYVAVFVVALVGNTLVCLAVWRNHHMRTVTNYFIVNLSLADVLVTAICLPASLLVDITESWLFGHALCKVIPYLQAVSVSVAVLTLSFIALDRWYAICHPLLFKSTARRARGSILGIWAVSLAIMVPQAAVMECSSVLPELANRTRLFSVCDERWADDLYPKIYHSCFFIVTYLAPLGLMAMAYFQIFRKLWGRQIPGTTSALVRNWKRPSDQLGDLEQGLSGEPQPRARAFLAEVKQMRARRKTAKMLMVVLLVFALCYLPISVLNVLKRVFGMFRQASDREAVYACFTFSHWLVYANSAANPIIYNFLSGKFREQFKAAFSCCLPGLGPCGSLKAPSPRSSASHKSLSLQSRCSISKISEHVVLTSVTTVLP
Description: (§1) Evaluation of Agonist Activity Against OX1R and OX2R
(§2) NAFT-luciferase gene and human OX1R gene were constitutively expressed in CHO cell, which is a cell line derived from Chinese hamster ovary to establish a cell line (CHOOX1R) and NAFT-luciferase gene and human OX2R gene were constitutively expressed in CHO cell to establish a cell line (CHOOX2R). The respective cells were seeded in a 96-well Multiplate at 10,000 cells/well and cultured in a 5% FBS (Thermo Scientific)-added DMEM medium (Sigma-Aldrich) for 48 hr. The medium was removed, an assay buffer (20 mM HEPES (Sigma-Aldrich), Hanks' balanced salt solution (Gibco), 0.1% BSA (Sigma-Aldrich), 2.5 mM probenecid acid (Wako Pure Chemical Industries, Ltd.)) (100 μL) containing 5 μM Fura-2AM (Cayman Chemical) was added, and the cells were incubated for 60 min. The buffer containing Fura-2AM was removed, and an assay buffer (75 μL) was added. An assay buffer (25 μL) containing a test compound was added thereto to start the reaction. Changes in the intracellular calcium ion concentration due to the reaction were measured by measuring the fluorescence intensity ratio by dual wavelength excitation at 340 and 380 nm, by using FDSS7000 (Hamamatsu Photonics K.K.). The test compound was dissolved in DMSO to 10 mM, and diluted with the assay buffer to a final concentration of 10^−7M to 10^−5M (final concentration of DMSO 1%).
(§3) (As used herein, Response in Table 21 to Table 27 is a value obtained by dividing the agonist activity value, when the test compound is evaluated with orexin-A as a full-agonist (maximum value of agonist activity: 100%), at 10 μM, 1.0 μM, 0.1 μM by the agonist activity value of orexin-A.)

human OX2R = biological target: T2, human OX2R (Homo sapiens, UniProt O43614); assay: Agonist activity against OX2R: intracellular calcium (Fura-2AM, FDSS7000) in CHOOX2R cells; format: cell-based; conditions: relative to orexin-A as full agonist (100%)
T2 construct: expressed in transfected cells; host or cells: CHO (Chinese hamster ovary) cells, line CHOOX2R, co-expressing NFAT-luciferase
T2 sequence (O43614 1-444): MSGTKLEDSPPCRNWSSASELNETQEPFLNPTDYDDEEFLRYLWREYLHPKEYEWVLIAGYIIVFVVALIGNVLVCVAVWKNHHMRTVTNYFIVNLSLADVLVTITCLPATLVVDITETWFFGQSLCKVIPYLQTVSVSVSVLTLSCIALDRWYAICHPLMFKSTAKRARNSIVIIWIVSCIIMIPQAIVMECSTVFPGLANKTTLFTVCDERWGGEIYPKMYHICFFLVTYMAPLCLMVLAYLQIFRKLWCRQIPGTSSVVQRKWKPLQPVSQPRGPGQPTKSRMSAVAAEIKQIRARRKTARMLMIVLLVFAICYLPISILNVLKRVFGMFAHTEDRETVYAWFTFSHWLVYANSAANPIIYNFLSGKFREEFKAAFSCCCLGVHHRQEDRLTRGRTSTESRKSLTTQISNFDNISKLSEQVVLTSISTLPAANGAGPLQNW
Description: as §1, §2, §3

[1] = test compound 0.1 μM, relative to orexin-A as full agonist (100%)
[2] = test compound 1.0 μM, relative to orexin-A as full agonist (100%)
[3] = test compound 10 μM, relative to orexin-A as full agonist (100%)
[4] = 0.1 μM test compound, relative to orexin-A as full agonist (100%)
[5] = 1.0 μM test compound, relative to orexin-A as full agonist (100%)
[6] = 10 μM test compound, relative to orexin-A as full agonist (100%)

Row | Structure (SMILES) | Response (%) OX2R (human OX2R; test compound 0.1 μM) | Response (%) OX2R (human OX2R; test compound 1.0 μM) | Response (%) OX2R (human OX2R; test compound 10 μM) | Response (%) OX1R (human OX1R; [4]) | Response (%) OX1R (human OX1R; [5]) | Response (%) OX1R (human OX1R; [6]) | Response (%) OX2R (human OX2R; 0.1 μM test compound) | Response (%) OX2R (human OX2R; 1.0 μM test compound) | Response (%) OX2R (human OX2R; 10 μM test compound) | also measured
1 | CCN(Cc1cccnc1)C(=O)c1ccc(OC)c(S(=O)(=O)Nc2cccc(NC(=O)Nc3ccc(N(C)C)cc3)c2)c1 [Example 111] | 32% | 88% | 100% |  |  |  |  |  |  | Response (%) OX1R (human OX1R; [1]): <5%; Response (%) OX1R (human OX1R; [2]): <5%; Response (%) OX1R (human OX1R; [3]): <5%
2 | COc1ccc(-c2cccc(C(=O)N(C)C)c2)cc1S(=O)(=O)Nc1ccccc1NC(=O)Nc1cccc(N(C)C)c1 [Example 121] | 7% | 47% | 104% |  |  |  |  |  |  | Response (%) OX1R (human OX1R; [1]): <5%; Response (%) OX1R (human OX1R; [2]): <5%; Response (%) OX1R (human OX1R; [3]): 10%
3 | COc1ccc(-c2cccc(C(=O)N(C)C)c2)cc1S(=O)(=O)Nc1cccc(NS(=O)(=O)Nc2cccc(C)c2)c1 [Example 90] | <5% | 56% | 89% |  |  |  |  |  |  | Response (%) OX1R (human OX1R; [1]): <5%; Response (%) OX1R (human OX1R; [2]): <5%; Response (%) OX1R (human OX1R; [3]): <5%
4 | COc1ccc(-c2cccc(C(=O)N(C)C)c2)cc1S(=O)(=O)Nc1cccc(NC(=O)c2cccc3ccccc23)c1 [Example 10] |  |  |  | 5% | 6% | 11% | 14% | 80% | 98% | 
5 | COc1ccc(-c2cccc(C(=O)N(C)C)c2)cc1S(=O)(=O)Nc1cccc(N2CCN(c3ccccc3)C2=O)c1 [Example 128, 4′-methoxy-N,N-dimethyl-3′-(N-(3-(2-oxo-3-phenylimidazolidin-1-yl)phenyl)sulfamoyl)-[1,1′-biphenyl]-3-carboxamide] | 10% | 77% | 105% |  |  |  |  |  |  | Emax at 0.1 µM (human OX1R): < 5%; Emax at 1 µM (human OX1R): < 5%; Emax at 10 µM (human OX1R): 6%
6 | COc1ccccc1Nc1cccc(NS(=O)(=O)c2cc(-c3cccc(C(=O)N(C)C)c3)ccc2OC)c1 [Example 31] |  |  |  | <5% | <5% | <5% | <5% | 10% | 72% | 
7 | COc1ccc(-c2cccc(C(=O)N(C)C)c2)cc1S(=O)(=O)Nc1cccc(NC(=O)c2ccccc2N(C)C)c1 [Example 6] |  |  |  | 7% | 7% | 6% | 9% | 17% | 32% | 
8 | COc1ccc(-c2cccc(C(=O)N(C)C)c2)cc1S(=O)(=O)Nc1cccc(NC(=N)Nc2ccccc2)c1 [Example 77, 4′-methoxy-N,N-dimethyl-3′-(N-(3-(3-phenylguanidino)phenyl)sulfamoyl)-[1,1′-biphenyl]-3-carboxamide] |  |  |  |  |  |  | <5% | 51% | 99% | Emax at 0.1 µM (human OX1R; [4]): < 5%; Emax at 1 µM (human OX1R; [5]): < 5%; Emax at 10 µM (human OX1R; [6]): < 5%
9 | COc1ccc(-c2cccc(C(=O)N(C)C)c2)cc1S(=O)(=O)Nc1cccc(NC(=O)NCc2ccccc2)c1 [Example 66] |  |  |  | 6% | 6% | 7% | 79% | 70% | 60% | 
10 | COc1ccc(-c2cccc(C(=O)N(C)C)c2)cc1S(=O)(=O)Nc1cccc(Nc2ccccc2)c1 [Example 30, 4′-methoxy-N,N-dimethyl-3′-(N-(3-(phenylamino)phenyl)sulfamoyl)-[1,1′-biphenyl]-3-carboxamide] |  |  |  |  |  |  | <5% | <5% | 39% | Emax at 0.1 µM (human OX1R): < 5%; Emax at 1 µM (human OX1R): < 5%; Emax at 10 µM (human OX1R): < 5%
11 | COc1ccc(-c2cccc(C(=O)N(C)C)c2)cc1S(=O)(=O)Nc1cccc(N2CCN(c3ccc(N(C)C)cc3)C2=O)c1 [Example 131] | 43% | 96% | 101% |  |  |  |  |  |  | Response (%) OX1R (human OX1R; [1]): <5%; Response (%) OX1R (human OX1R; [2]): <5%; Response (%) OX1R (human OX1R; [3]): 18%

Further lines, with some results ahead:

Row | Response (%) OX2R (human OX2R; test compound 0.1 μM) | Response (%) OX2R (human OX2R; test compound 1.0 μM) | Response (%) OX2R (human OX2R; test compound 10 μM) | Response (%) OX1R (human OX1R; [4]) | Response (%) OX1R (human OX1R; [5]) | Response (%) OX1R (human OX1R; [6]) | Response (%) OX2R (human OX2R; 0.1 μM test compound) | Response (%) OX2R (human OX2R; 1.0 μM test compound) | Response (%) OX2R (human OX2R; 10 μM test compound) | Structure (SMILES) | also measured
12 |  |  |  | 9% | 8% | 27% | 8% | 13% | 61% | COc1ccc(-c2cccc(C(=O)N(C)C)c2)cc1S(=O)(=O)Nc1cccc(NC(=O)c2ccc(N(C)C)cc2)c1 [Example 8] | 
13 |  |  |  | <5% | <5% | <5% | 12% | 81% | 114% | COc1ccc(-c2cccc(C(=O)N(C)C)c2)cc1S(=O)(=O)Nc1cccc(NC(=O)c2cccc(C)c2)c1 [Example 15] | 
14 |  |  |  | <5% | <5% | <5% | <5% | 10% | 58% | COc1ccc(C(=O)Nc2cccc(NS(=O)(=O)c3cc(-c4cccc(C(=O)N(C)C)c4)ccc3OC)c2)cc1 [Example 19] | 
15 |  |  |  | 13% | 11% | 32% | <5% | 26% | 74% | COc1ccc(-c2cccc(C(=O)N(C)C)c2)cc1S(=O)(=O)Nc1cccc(NC(=O)c2ccccc2Br)c1 [Example 2] | 
16 | 15% | 13% | 13% |  |  |  |  |  |  | COc1ccc(-c2cccc(C(=O)N(C)C)c2)cc1S(=O)(=O)Nc1cccc(NS(=O)(=O)c2cccc(F)c2)c1 [Example 88] | Response (%) OX1R (human OX1R; [1]): 7%; Response (%) OX1R (human OX1R; [2]): 7%; Response (%) OX1R (human OX1R; [3]): 9%
17 |  |  |  | 6% | 6% | 6% | 9% | 9% | 46% | COc1ccc(-c2cccc(C(=O)N(C)C)c2)cc1S(=O)(=O)Nc1cccc(NC(=O)Nc2ccncc2)c1 [Example 70] | 
18 |  |  |  | <5% | <5% | <5% | 6% | 54% | 81% | COc1ccc(-c2cccc(C(=O)N(C)C)c2)cc1S(=O)(=O)Nc1cccc(NCc2ccccc2Br)c1 [Example 28] | 
19 |  |  |  | <5% | <5% | 6% | <5% | 72% | 93% | COc1ccc(-c2cccc(C(=O)N(C)C)c2)cc1S(=O)(=O)Nc1cccc(NCc2ccccc2C)c1 [Example 24] | 
20 |  |  |  | <5% | <5% | <5% | <5% | <5% | <5% | COc1ccc(-c2cccc(C(=O)N(C)C)c2)cc1S(=O)(=O)Nc1cccc(NC(=O)Nc2cccc(NC(=NC(=O)OC(C)(C)C)NC(=O)OC(C)(C)C)c2)c1 [Example 64] | 
